Laboratory results: article PMC10877774, “Development of an UPLC-MS/MS method for quantitative analysis of abexinostat levels in rat plasma and application of pharmacokinetics” (BMC Chemistry, 2024)

Experiments:
[1] = Stability of abexinostat in rat plasma under different storage and handling conditions; format: in vitro ADME; conditions: for stability (in words) / stability of plasma samples (in words): RE within ± 15% considered stable; for Stability RE (%): n = 5
Experimental: For the preparation of control and standard curves, we dissolved abexinostat and IS in methanol at a concentration of 1.00 mg/mL. Both the abexinostat working solution and the 100 ng/mL IS working solution were diluted with methanol from their respective stock solutions. The corresponding working solution (10 μL) was diluted tenfold and operated by adding rat blank plasma (90 μL) to obtain a calibration curve with a concentration range of 2.00–100 ng/mL. The concentrations at each point in the standard curve were set to 2.00, 5.00, 10, 20, 50, 100 ng/mL, respectively. Final concentrations of QC samples were 2.00 (lower limit of quantitation, LLOQ), 5.00 (low quality control, LQC), 40 (median quality control, MQC), and 80 (high quality control, HQC) ng/mL.
The principles of the analytical methods in this study were performed in accordance with the FDA’s “Guidance for Industry: Bioanalytical Method Validation” [14], including calibration curves, selectivity, LLOQ, recovery, matrix effects, precision and accuracy, and stability.
Stability experiments to test abexinostat in plasma under different storage and handling conditions were done to investigate whether abexinostat was still stable in rat plasma. The stability test results were in Table 3. […] Furthermore, the assay remained stable in the autosampler (10 °C) for 4 h and 3 h at room temperature. Relative errors (RE) within ± 15% were considered stable by data comparison.

[2] = set-up: method as in PMID 27911138; conditions: cited from earlier work
[3] = set-up: method as in PMID 28126962; conditions: patients with follicular lymphoma, T-cell lymphoma, diffuse large B-cell lymphoma, phase II; cited from earlier work
[4] = Pharmacokinetic study in rats after single gavage dose, plasma levels by UPLC-MS/MS; format: in vivo, Sprague–Dawley Rats
Experimental: Quantitative analysis was performed using a UPLC-MS/MS system consisting of a Waters Xevo TQ-S triple quadrupole tandem mass spectrometer and a Waters ACQUITY UPLC I-Class system (Milford, MA, USA) used in this experiment. Accurate molecular weight calculations were achieved using an electrospray ionization (ESI) source (Milford, MA, USA) with ultra-high sensitivity. The system was chromatographed on an Acquity BEH C18 column (2.1 mm × 50 mm, 1.7 μm; Milford, MA, USA) at 40 °C with acetonitrile and 0.1% formic acid as mobile phases. Gradient elution was as follows: 0 − 0.5 min (acetonitrile, 10%) and 0.5–1.0 min (acetonitrile, 10–90%), 1.0–1.4 min (acetonitrile, 90%) and 1.4–1.5 min (acetonitrile, 90–10%) at 0.40 mL/min. Finally, the mobile phase was maintained 10% acetonitrile between 1.5 and 2.0 min for equilibration. A 2.0 μL sample was drawn from each vial as the injection volume, and the entire analysis process time was 2.0 min. In UPLC-MS/MS, we used positive ion mode to detect abexinostat and IS with ion transition of m/z 397.93 → 200.19 and 422.01 → 186.11, respectively. 25 eV and 30 V were the collision energy and cone voltage for both.
Plasma protein composition interfered with detection sensitivity. The protein precipitation method in this study was to add acetonitrile to the plasma, and the protein was fully precipitated and then centrifuged. We added 100 μL of the plasma sample along with 10 μL of the IS working solution (concentration of 100 ng/mL) in an Eppendorf (EP) tube. Mixing well and adding acetonitrile at a ratio of 1:3 to precipitate the protein in the EP tube, and centrifuged at 13,000 rpm for 10 min at 4 °C. 100 μL of the supernatant was transferred to an autosampler vial for quantitative analysis by the UPLC-MS/MS system.
Sprague–Dawley Rats Were Provided By The First Affiliated Hospital Of Wenzhou Medical University (Zhejiang, China), And The Animal Study Was Reviewed And Approved By Ethics Committee Of The First Affiliated Hospital of Wenzhou Medical University (WYYY-IACUC-AEC-2023-055). All rats were fasted for 24 h before the experimental animals, and a single gavage dose of 8.00 mg/kg of abexinostat was administered to 6 rats after fasting. At 20 and 40 min, 1, 1.5, 2, 3, 4, 6, 8, 12, 24, and 48 h after gavage, 300 μL of whole blood was collected from the tail vein of the rat and put into heparinized tubes. Then, the blood sample was centrifuged at 8000 rpm for 5 min. 100 μL of plasma was obtained and frozen at − 80 °C for further processing and analysis.
The main parameters of pharmacokinetics were analyzed by Drug and Statistics (DAS, Version 3.0 software, Shanghai University of Traditional Chinese Medicine, China).

[5] = set-up: method as in PMID 26482040; conditions: 60 mg/m^2 group; grade 5 acute renal failure, grade 3 long-term diarrhea; cited from earlier work
[6] = patients, most common grade 3 treatment-related adverse events
[7] = Sprague-Dawley, po, rat plasma, intragastric single dose 8.00 mg/kg, n = 6, Mean ± SD

stability (in words) ([1]; 3 h at room temperature): stable
Stability RE (%) ([1]; Autosampler 10 ℃, 4 h, 40 ng/mL): 15.0%
stability (in words) ([1]; autosampler (10 °C) for 4 h): stable
Stability RE (%) ([1]; plasma, Room temperature, 3 h, 40 ng/mL): 2.2%
Stability RE (%) ([1]; plasma, Room temperature, 3 h, 80 ng/mL): 0.2%
Stability RE (%) ([1]; plasma, Three freeze–thaw (− 80 °C/room temperature), 80 ng/mL): 13.8%
Stability RE (%) ([1]; plasma, − 80 ℃, 3 weeks, 5.00 ng/mL): 5.4%
Stability RE (%) ([1]; plasma, − 80 ℃, 3 weeks, 40 ng/mL): 3.3%
stability of plasma samples (in words) ([1]; three cycles of full freezing (− 80 °C)/thawing (room temperature)): stable
stability of plasma samples (in words) ([1]; − 80 °C for at least 3 weeks): stable
AUC(0-inf) [4, 7]: 501 ± 40.1 ng·h/mL
AUC(0-t) [4, 7]: 461 ± 38.9 ng·h/mL
Cmax [4, 7]: 28.2 ± 7.67 ng/mL
half-life [4, 7]: 13.8 ± 2.5 h
CL/F ([4]; Sprague-Dawley, po, rat plasma, intragastric single dose 8.00 mg/kg, n = 6, Mean ± SD, read-out: CLz/F (converted)): 267 mL/min/kg
MRT last ([4]; Sprague-Dawley, po, rat plasma, intragastric single dose 8.00 mg/kg, n = 6, Mean ± SD, read-out: MRT0-t): 14.8 ± 0.8 h
MRT inf ([4]; Sprague-Dawley, po, rat plasma, intragastric single dose 8.00 mg/kg, n = 6, Mean ± SD, read-out: MRT0-∞): 19.1 ± 2.55 h
Tmax ([4]; Sprague-Dawley, rat, plasma, po, 8 mg/kg, rat plasma, intragastric single dose 8.00 mg/kg, n = 6, Mean ± SD): ~1.39 h
time at which plasma concentration peaks, estimated from Fig. 3 ([4]; rats, oral administration 8.00 mg/kg, mean concentration–time curve): around 1 h
SMILES: CN(C)Cc1c(C(=O)NCCOc2ccc(C(=O)NO)cc2)oc2ccccc12 [Abexinostat]
evaluable patients with stable disease ([2]; Phase I, various types of leukemia): 1 out of 12
grade 3 treatment-related adverse event: neutropenia [2, 6]: 24%
grade 3 treatment-related adverse event: thrombocytopenia [2, 6]: 29%
tumor control (in words) [3]: durable tumor control
patients with dose-limited toxicities (DLTs) [5]: 2/8
